Data taken from article PMC9289130, “Pharmacokinetic Study of Four Major Bioactive Components of Liandan Xiaoyan Formula in Ulcerative Colitis and Control Rats Using UPLC-MS/MS” (Frontiers in Pharmacology, 2022).
Where two headings read alike, the source gives them in different places.

Columns and labels:
[1] = Pharmacokinetic study in control and DSS-induced UC rats after oral administration of LXF (serum, UPLC-MS/MS); type: in vivo, Sprague-Dawley (SD) rats; conditions: for Shape of the serum concentration-time curve: oral LXF; for AUC(0-inf) / AUC(0-t) / Cmax / Tmax / half-life / MRT inf: male, Sprague-Dawley, rat, serum, po, 3.3 g/kg, oral LXF 3.30 g/kg, rat serum, n = 8, mean ± SD; for MRT inf: read-out: MRT0→∞
Procedure: Sixteen male Sprague-Dawley (SD) rats (220 ± 10 g) were provided from the Liaoning Changsheng Biotechnology Co., Ltd (Benxi, China; with license No. of SCXK, 2020-0001). The rats were kept in an environment (22 ± 2°C, relative humidity 50 ± 5%) under a 12-h light-dark cycle with a free diet and water for 3 days. All experiments on animals were conducted strictly under the related ethics regulations of the Committee on Use and Care of Animals of Guangzhou University of Chinese Medicine (Guangzhou, China) (No. 712052).
All rats were assigned equally and randomly to the control and model groups. The rats of the model group were free to access 4% DSS for 7 days to induce UC, and rats of the control group were given pure water ([Chen et al., 2020]). Before the pharmacokinetics study, the DSS-induced UC rats (model) were established successfully (Supplementary Material Part B).
After fasting for 12 h, the rats were orally administered LXF at a 3.30 g/kg dose according to Prescription preparation of Chinese medicine, volume 10 ([Lu et al., 2021]). Serum samples (approximately 0.5 ml) were collected from the fosse orbital vein using 1.5 ml polythene tubes before the administration and at 0.083, 0.25, 0.5, 1, 1.5, 2.5, 4, 6, 8, 12, 24, 36, and 48 h after dosing and centrifuged immediately at 3,500 rpm for 15 min. Serum was transferred into clean tubes and stored at −80°C.
100 μl of IS solution (960 ng/ml) was added to a 100 μl serum sample and vortex-mixed for 0.5 min, and then 800 μl of methanol was added and vortex-mixed for 3 min. After centrifugation at 12,000 rpm for 15 min (4°C), the supernatant of the mixture was transferred to another vial and evaporated to dryness with nitrogen purging. The residue was resolved with 100 μ of methanol, vortex-mixed for 1 min, and centrifuged at 12,000 rpm for 10 min (4°C). A 2 μl aliquot of the supernatant was injected into the UPLC-MS/MS system for analysis.
Chromatographic analysis was performed using UPLC-MS/MS, utilizing a Finnigan Surveyor auto-sampler and a Finnigan Surveyor LC pump combined with a triple quadrupole TSQ Quantum mass spectrometer electrospray ionization (ESI) interface (Thermo Fisher, Palo Alto, CA). The chromatographic separation was performed on the Waters Acquity UPLC BEH C18 column (2.1 mm × 100 mm; 1.7 µm). The mobile phase consisted of acetonitrile (A) and 0.1% formic acid (B) with a gradient elution program (0-5 min, 20% A-35% A; 5-6 min, 35% A-100% A; 6–8min, 100% A; 8–8.5 min, 100% A-20% A; 8.5–10.5 min, 20% A) at a flow rate of 0.4 ml/min. The column temperature was maintained at 40°C throughout the analysis. The injection volume was 2 μl.
Quantification was performed using multiple reaction monitoring (MRM) in the positive ionization mode, and the optimized MRM parameters of the four analytes and IS are listed in Table 1. The MRM transition, retention time (RT), and collision energy (CE) values were based on Thermo Foundation 2.0. Curtain gas pressure at 35 psi, ion source gas 1 and gas 2 at 55 psi, ion spray voltage at 5500 V, and temperature at 500°C.
Non-compartment model pharmacokinetic parameters, including the time to reach the maximum serum concentration (Tmax), the maximum serum concentration (Cmax), the elimination half-time (T1/2), the area under the serum concentration-time curve (AUC), and mean residence time (MRT), were calculated by DAS (version 3.2.8, Chinese Pharmacological Association, Anhui, China). The difference between the control and model groups was statistically analyzed using SPSS 26.0 (IBM Company, Chicago). All data in this study were subjected to a one-way analysis of variance (ANOVA) and then expressed by mean ± standard deviation (SD). LSD t-test was applied when the homogeneity of variance assumptions was satisfied; otherwise, Dunnett’s t-test was used. A p < 0.05 was considered statistically significant.

[2] = Stability test of QC samples in rat serum; type: in vitro ADME; conditions: n = 6
Procedure: Quality control (QC) samples at low, middle and high concentrations (61.50, 384.38, and 4,000.00 ng/ml for andrographolide; 24.00, 150.00, and 1,500.00 ng/ml for dehydroandrographolide; 6.91, 43.20, and 450.00 ng/ml for 1-methoxicabony-β-carboline; 6.30, 39.38, and 400.00 ng/ml for 4-methoxy-5-hydroxy-canthin-6-one) were also prepared by the same procedures.
Recovery was determined at three QC levels and calculated by comparing the compound standard peak areas obtained from extracted samples with post-extracted samples spiked with the compound. Matrix effects were calculated by matching spiking post-extracted blank serum samples with corresponding standard clean solutions at three concentrations of QC samples.

## C=C1CC[C@@H]2[C@](C)(CO)[C@H](O)CC[C@@]2(C)[C@H]1C/C=C1\C=COC1=O [dehydroandrographolide]
[1]; UC group
  Shape of the serum concentration-time curve: double peaks
[1]; control group
  Shape of the serum concentration-time curve: double peaks
  AUC(0-inf): 2.36 µg·h/mL
  AUC(0-t): 2.33 µg·h/mL
  Cmax: 0.892 ± 0.148 µg/mL
  Tmax: 0.28 ± 0.09 h
  half-life: 2.28 ± 1.69 h
  MRT inf: 5.04 ± 1.96 h
[1]; UC group (4% DSS for 7 days)
  AUC(0-inf): 4.79 µg·h/mL
  AUC(0-t): 4.69 µg·h/mL
  Cmax: 1.15 µg/mL
  Tmax: 0.38 ± 0.13 h
  half-life: 2.86 ± 2.01 h
  MRT inf: 5.08 ± 1.53 h
[2]; 4°C for 24 h, high QC (nominal 4,000.00 / 1,500.00 / 450.00 / 400.00 ng/ml for compounds 1-4)
  Stability, mean concentration found: 1,421.52 ± 61.75 ng/mL
[2]; 4°C for 24 h, low QC (nominal 61.50 / 24.00 / 6.91 / 6.30 ng/ml for compounds 1-4)
  Stability, mean concentration found: 25.71 ± 1.69 ng/mL
[2]; 4°C for 24 h, middle QC (nominal 384.38 / 150.00 / 43.20 / 39.38 ng/ml for compounds 1-4)
  Stability, mean concentration found: 156.59 ± 14.58 ng/mL
[2]; 25°C for 12 h, high QC (nominal 4,000.00 / 1,500.00 / 450.00 / 400.00 ng/ml for compounds 1-4)
  Stability, mean concentration found: 1,439.13 ± 52.46 ng/ml
[2]; 25°C for 12 h, low QC (nominal 61.50 / 24.00 / 6.91 / 6.30 ng/ml for compounds 1-4)
  Stability, mean concentration found: 23.51 ± 0.69 ng/mL
[2]; 25°C for 12 h, middle QC (nominal 384.38 / 150.00 / 43.20 / 39.38 ng/ml for compounds 1-4)
  Stability, mean concentration found: 153.93 ± 10.00 ng/mL
[2]; three freeze-thaw, high QC (nominal 4,000.00 / 1,500.00 / 450.00 / 400.00 ng/ml for compounds 1-4)
  Stability, mean concentration found: 1,428.09 ± 67.73 ng/mL
[2]; three freeze-thaw, low QC (nominal 61.50 / 24.00 / 6.91 / 6.30 ng/ml for compounds 1-4)
  Stability, mean concentration found: 21.20 ± 2.30 ng/mL
[2]; three freeze-thaw, middle QC (nominal 384.38 / 150.00 / 43.20 / 39.38 ng/ml for compounds 1-4)
  Stability, mean concentration found: 143.60 ± 9.61 ng/mL
[2]; −80°C for 30 days, high QC (nominal 4,000.00 / 1,500.00 / 450.00 / 400.00 ng/ml for compounds 1-4)
  Stability, mean concentration found: 1,419.63 ± 51.60 ng/ml
[2]; −80°C for 30 days, low QC (nominal 61.50 / 24.00 / 6.91 / 6.30 ng/ml for compounds 1-4)
  Stability, mean concentration found: 22.46 ± 2.57 ng/mL
[2]; −80°C for 30 days, middle QC (nominal 384.38 / 150.00 / 43.20 / 39.38 ng/ml for compounds 1-4)
  Stability, mean concentration found: 151.06 ± 3.31 ng/mL
